In US7414068B2, “Benzopyran derivatives substituted with secondary amines including tetrazole, method for the preparation thereof and pharmaceutical compositions containing them” (Dongbu Hannong Chemical Co., Ltd., priority 2002, dated 2008):
Like-named read-outs stand apart in the source and are kept apart here.

Legend:
[1] = system: retina ganglion cell; assay: Protective effect on neuronal cells damage by axotomy of optic nerve; assay type: in vivo, rat; conditions: 20 μM, injected vitreously, after axotomy of optic nerve
Description: Test compounds were dissolved in DMSO to prepare stock solution (100 mM), which was diluted with physiological saline to the 20 μM. 10 μl of […] was injected vitreously.
Adult rats were anesthetized with chloral hydrate (400 mg/Kg), then optic nerve was exposed by bulbar conjunctiva. Thereafter, nerve corresponding to 0.5 mm or 3 mm from eye ball was excided, respectively. Or through upper eyelid cutaneous amputation was accomplished, then part of lacrimal gland was removed. […] The optic nerve was excised about 5 mm back from eye ball. Blood vessels of retina supplying blood to retina was not impaired. Condition of blood vessels of retina was checked with funduscope. Fluorogold (Fluorochrome Inc. 5% in PBS (phosphate buffered solution) was administrated to Half of test group, in the retrograde after axotomy of optic nerve. To investigate cell survival of the ganglion after axotomy, eyes was removed from rats, then retina was isolated in 3 days, 1 week, 2 weeks, 4 weeks, 2 months, 4 months, and 6 months. The isolated retina was investigated by transmission electron microscope. For quantitative analysis, at the same time tissue of retina was prepared. The prepared tissue was investigated by immunochemical dyeing or fluorescent microscope to which 530˜560 nm filter was installed.

[2] = system: isolated rat aorta; assay: Vasodilating effect on blood vessel excised from rats (methoxamine-constricted aorta); conditions: isolated rat aorta constricted with methoxamine (3 μM); read-out: Concentration for inhibition of constriction induced by methoxamine in rat arota (IC50)
Method in brief: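 Endothelium-denuded rat thoracic aortic rings (3 mm) in Krebs-Henseleit buffer, 37 °C, carbogen, 2 g resting tension, primed twice with 10^−5 M phenylephrine. After maximal contraction with 3×10^−6 M methoxamine, compounds added cumulatively at 1, 3, 10, 30 μM. IC50 = concentration giving 50% relaxation of maximal constriction, by linear regression.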

[3] = system: Sprague-Dawley Rat; conditions: 30 mg/kg; for Infarction volume Medium(%): four times to abdominal cavity, 24 hours after operation
Description: Male rat (Sprague-Dawley Rat, 350±50 g, Samyook) was anesthetized by administration of Pentobarbital sodium 40 mg/Kg. PE-19 tubing was inserted to the femoral vein and the artery, left carotid artery was exposed. Before the operation, heparin sulfate 20 μg was injected to the peritoneal cavity. Blood pressure measuring device was inserted to the femoral artery for the continuous measurement of arterial pressure. Blood (10 ml) was collected from the femoral vein to decrease blood pressure to 30 mmHg. If blood pressure is not decreased to 100 mmHg by collection of blood (7 ml), it is evaluated that sympathetic tone is very high.
With blood pressure maintaining to be 30 mmHg, left carotid artery was closed by aneurysm clamp for 20 min to induce ischemia. Reperfusion was accomplished by the collected blood and 0.84% bicarbonate saline (5 ml). Body temperature of rats was constantly maintained to be 37±0.5° C., by using thermal blanket and incandescent light bulbs during the ischemia. After the operation, in recovering period, body temperature was constantly maintained for more than 2 hours. If rats were recovered entirely, they were transferred to animal laboratory. Condition of animal laboratory, such as temperature, humidity and light cycle was constantly maintained to be 27° C., 60% and […], respectively.
After 24 hours from the operation, rats were sacrificed. Then brain was enucleated from rat within 3 min. Enucleated brain was excised on the ice at the interval 2 mm by using brain matrix to produce six coronal sections. The said coronal sections were dyed in 2% 2,3,5-triphenyltetrazolium chloride solution at 37° C. for 30 min. The said dyed coronal section was developed and printed. Thereafter, the ratio of necrosis area to brain area was measured by using Image Analyzer.
Otherwise, test compounds were four times administrated to abdominal cavity at a dose 30 mg/kg. […]
The protective effect on brain damage induced by brain ischemia-reperfusion was evaluated by calculating reduction of necrosis area to that of brain for a control group.

[4] = listed as compound of formula 11

COC(OC)[C@@]1(C)Oc2ccc(N)cc2[C@H](N(Cc2nnn(C)n2)c2ccc(Cl)cc2)[C@H]1O [Example 11, (2S,3R,4S)-6-amino-4-[N-(4-chlorophenyl)-N-(2-methyl-2H-tetrazol-5-ylmethyl)amino]-3-hydroxy-2-methyl-2-dimethoxymethyl-3,4-dihydro-2H-1-benzopyran]
Survival of the ganglion cell(%) [1]: 43% | Survival of the ganglion cell(%) [1, 4]: 43% | IC50 [2]: > 30 µM | Infarction volume Medium(%) [3]: 21.5 ± 2.6% | Infarction volume Medium(%) [3, 4]: 21.5% | Infarction volume Decrease(%) ([3]; relative to control group): 46.3%
